Reference: ChEMBL document CHEMBL3124790, “Antibacterial properties and mode of action of new triaryl butene citrate compounds” (Eur J Med Chem, 2014)
Converted amounts (≈) assume the structure as drawn. The source made the active and inactive calls. No cut-off for these calls is given here.

How the values were obtained:
[1] = tested on: Escherichia coli; assay: Antimicrobial activity against Escherichia coli MC4100 assessed as blurred boundaries and highly altered cell walls at 5 times MIC after 5 mins by transmission electron microscopy analysis; assay type: functional, organism-based
[2] = tested on: Escherichia coli; assay: Antimicrobial activity against Escherichia coli MC4100 after 24 hrs by polystyrene micro-assay; assay type: functional; details: MC4100, 24 h
[3] = tested on: Listeria monocytogenes; assay: Antimicrobial activity against Listeria monocytogenes LMA 1045 after 24 hrs by polystyrene micro-assay; assay type: functional; details: LMA 1045, 24 h
[4] = Hemolytic activity in erythrocytes (unknown origin) after 1 hr; assay type: ADME, cell-based, Erythrocyte
[5] = tested on: Escherichia coli; assay: Antimicrobial activity against Escherichia coli MC4100 assessed as damage of inner or outer membranes at 5 times MIC after 5 mins by transmission electron microscopy analysis; assay type: functional, organism-based
[6] = tested on: Escherichia coli; assay: Antimicrobial activity against Escherichia coli ATCC 11229 after 24 hrs by polystyrene micro-assay; assay type: functional; details: ATCC 11229, 24 h
[7] = tested on: Pseudomonas aeruginosa; assay: Antimicrobial activity against Pseudomonas aeruginosa ATCC 15442 after 24 hrs by polystyrene micro-assay; assay type: functional; details: ATCC 15442, 24 h
[8] = tested on: Listeria ivanovii; assay: Antimicrobial activity against Listeria ivanovii HPB20 assessed as condensed and localized intracellular content at 5 times MIC after 5 mins by transmission electron microscopy analysis; assay type: functional, cell-based
[9] = tested on: Salmonella enterica subsp. enterica; assay: Antimicrobial activity against Salmonella enterica ATCC 14028 after 24 hrs by polystyrene micro-assay; assay type: functional; details: ATCC 14028, 24 h
[10] = tested on: Enterococcus faecalis; assay: Antimicrobial activity against Enterococcus faecalis ATCC 27275 after 24 hrs by polystyrene micro-assay; assay type: functional; details: ATCC 27275, 24 h
[11] = tested on: Listeria ivanovii; assay: Antimicrobial activity against Listeria ivanovii HPB20 assessed as appearance of swollen and severely damaged morphology at 5 times MIC after 5 mins by transmission electron microscopy analysis; assay type: functional
[12] = tested on: Staphylococcus aureus; assay: Antimicrobial activity against Staphylococcus aureus ATCC 6538 after 24 hrs by polystyrene micro-assay; assay type: functional; details: ATCC 6538, 24 h
[13] = tested on: Listeria ivanovii; assay: Antimicrobial activity against Listeria ivanovii HPB28 after 24 hrs by polystyrene micro-assay; assay type: functional; details: HPB28, 24 h
[14] = tested on: Listeria monocytogenes; assay: Antimicrobial activity against Listeria monocytogenes LSD 532 after 24 hrs by polystyrene micro-assay; assay type: functional; details: LSD 532, 24 h
[15] = tested on: Listeria ivanovii; assay: Antimicrobial activity against Listeria ivanovii HPB20 assessed as loss of integrity at 5 times MIC after 5 mins by transmission electron microscopy analysis; assay type: functional
[16] = tested on: Listeria monocytogenes; assay: Antimicrobial activity against Listeria monocytogenes assessed as induction of Na+ efflux assessed per mg of cell dry weight at 2 ug/ml after 30 mins by spectrometry analysis; assay type: functional
[17] = tested on: Listeria monocytogenes; assay: Antimicrobial activity against Listeria monocytogenes assessed as induction of K+ efflux assessed per mg of cell dry weight at 2 ug/ml after 30 mins by spectrometry analysis; assay type: functional
[18] = tested on: Listeria monocytogenes; assay: Antimicrobial activity against Listeria monocytogenes assessed as induction of Na+ efflux assessed per mg of cell dry weight at 5 times MIC after 30 mins by spectrometry analysis; assay type: functional
[19] = tested on: Listeria monocytogenes; assay: Antimicrobial activity against Listeria monocytogenes assessed as induction of K+ efflux assessed per mg of cell dry weight at 2 to 5 times MIC after 30 mins by spectrometry analysis; assay type: functional
[20] = tested on: Escherichia coli; assay: Antimicrobial activity against Escherichia coli MC4100 assessed as uniform electron density of cytoplasm and formation of mesosome-like structure at 5 times MIC after 5 mins by transmission electron microscopy analysis; assay type: functional, organism-based
[21] = tested on: Listeria monocytogenes; assay: Antimicrobial activity against Listeria monocytogenes assessed as induction of K+ efflux assessed per mg of cell dry weight at MIC after 30 mins by spectrometry analysis; assay type: functional

In the case of `CN(C)CCCOc1ccc(C(=C2CCc3ccccc32)c2ccc(OCCCN(C)C)cc2)cc1`, the Activity [1] is reported as “Active”, the MIC [2] is reported as 100 µM (≈ 48.5 µg/mL) and the MIC [3] is reported as 62 µM (≈ 30.1 µg/mL). The HC50 at 1 h [4] was 68.6 µM, the Activity [5] was “Active” and the MIC [6] was 100 µM (≈ 48.5 µg/mL). For the same compound, the MIC [7] was 2500 µM (≈ 1210 µg/mL), the Activity [8] was “Active” and the MIC [9] was 2500 µM (≈ 1210 µg/mL). The MIC [10] was 40 µM (≈ 19.4 µg/mL), the Activity [11] was “Active” and the MIC [12] was 31 µM (≈ 15 µg/mL). The MIC [13] was 25 µM (≈ 12.1 µg/mL), the MIC [14] was 31 µM (≈ 15 µg/mL) and the Activity [15] was “Active”.

With `C=C(NC(=O)[C@@H](NC(=O)[C@H](Cc1cnc[nH]1)NC(=O)[C@@H](NC(=O)[C@H](CO)NC(=O)[C@@H]1CSC(C)[C@@H]2NC(=O)[C@H](C)NC(=O)[C@@H](NC(=O)N(CCCCN)C(=O)[C@H](CCCCN)NC(=O)[C@@H](CCSC)NC(=O)[C@H](CC(N)=O)NC(=O)[C@@H]3CSC(C)[C@H](NC(=O)[C@H](CCCCN)NC(=O)[C@@H]4CSC(C)[C@H](NC(=O)[C@@H]5CSC[C@H](NC(=O)/C(=C/C)NC(=O)[C@@H](N)[C@@H](C)CC)C(=O)N[C@@H](CC(C)C)C(=O)NC(=C)C(=O)N[C@@H](CC(C)C)C(=O)N5)C(=O)N5CCC[C@H]5C(=O)NCC(=O)N4)C(=O)NCC(=O)N[C@@H](C)C(=O)N[C@@H](CC(C)C)C(=O)N[C@H](CCSC)C(=O)NCC(=O)N3)C(C)SC[C@H](NC2=O)C(=O)N[C@@H](Cc2cnc[nH]2)C(=O)N1)[C@@H](C)CC)C(C)C)C(=O)N[C@@H](CCCCN)C(=O)O` (stereo not given in full) the Activity [16] was 635.96 nmol and the Activity [17] was 361.79 nmol.

With `CCC(=C(c1ccc(OCCCN(C)C)cc1)c1ccc(OCCCN(C)C)cc1)c1ccccc1.O=C(O)CC(O)(CC(=O)O)C(=O)O` the Activity [1] was “Active”, the MIC [2] was 50 µM and the MIC [3] was 62 µM. For the same compound, the HC50 at 1 h [4] was 67.1 µM, the Activity [5] was “Active” and the Activity [18] was 68%. It also gave an MIC [6] of 50 µM, an MIC [7] of over 5000 µM and an MIC [9] of 1250 µM. The Activity [19] was 344 nmol, the MIC [10] was 80 µM and the Activity [11] was “Active”. The MIC [12] was 31 µM, the Activity [20] was “Active” and the Activity [21] was 183.74 nmol. For the same compound, the MIC [13] was 25 µM, the MIC [14] was 31 µM and the Activity [15] was “Active”.
